88 compounds from a melting point compilation (Tetko et al.; mined from patent text by program, amines drawn as free bases though some values may be those of a salt) can be followed below.

A value given as a limit tells only on which side of the number the result lay.

On to `CC(O)c1ccc(C(O)(c2ccc3c(c2)c(-c2cccc(Cl)c2)cc(=O)n3C)c2cncn2C)cc1` (stereo not drawn), for which the melting point was 181 °C. As for `CCNC(=O)CC(c1ccc(OC)c(OC)c1)N1C(=O)c2ccccc2C1=O` (stereo not drawn), the melting point was 131 to 132 °C.

Compound `CCOC(=O)C(=O)Nc1nc2ncn(C)c(=S)n2n1` yielded a melting point of 280 to 282 °C. Under `CCCCC(C(=O)O)c1cccc(Oc2ccccc2C)c1O` (stereo not drawn) stands 83 to 84 °C. Under `C=CCNc1nc(NCC=C(C)C)c2scc(C)c2n1` stands 114 to 115 °C; under `COC1C(OC(=O)N2CCOCC2)CCC2(CO2)C1C1(C)OC1CCOCc1ccccc1` (stereo not drawn), 96 to 97 °C; under `COC(=O)C1=C(C)NC(C)=C(P2(=O)OCCCO2)C1c1ccccc1[N+](=O)[O-]` (stereo not drawn), 249 to 251 °C. Under `CCCNC(=O)C(C)=Cc1ccc2[nH]cc(Cc3ccc(C(=O)OC)cc3OC)c2c1` stands 55 to 60 °C. `CCCCc1nccn1Cc1ccc2oc(-c3ccccc3C(=O)O)c(Br)c2c1` displayed a melting point of 138 to 145 °C.

The compound `CC(C)O[Si](C)(C)C[C@](O)(c1ccc(F)cc1F)[C@@H](C)n1ncn(-c2ccc(OCC(F)(F)C(F)F)cc2)c1=O` showed a melting point of 125 to 126 °C.

In turn, `Nc1ccccc1CSc1ncc(C(F)(F)F)cc1Cl` yielded a melting point of 98 to 102 °C. The compound `O[C@@H](COc1cccc(-c2noc3ccsc23)c1)CN1CCN(c2ccccc2C(F)(F)F)CC1` showed a melting point of 77 to 79 °C.

The compound `CC(C(=O)O)c1ccc2c(c1)C(c1ccccc1)=NCC(=O)N2` (stereo not drawn) yielded a melting point of 252 to 255 °C. In the case of `CC(C(=O)O)c1ccc2c(c1)Cc1cc([N+](=O)[O-])ccc1-2` (stereo not drawn), the melting point lay in the range of 206 to 209 °C.

Consider `CCOC(=O)c1c(-c2cccc(C)c2)oc(Cl)c(Cl)c1=O`, for which the melting point was determined as 113 °C. Under `O=c1c2ccccc2ccn2ccnc12` stands 219 °C; under `O=C(NC(=O)c1ccccc1Cl)Nc1cc(Cl)c2c(c1)C(F)(F)C(F)(F)S2`, 140 to 142 °C; under `Cc1ccc(S(=O)(=O)OC2CCc3c(c4ccccc4n3C)C2)cc1` (stereo not drawn), 104 to 106 °C. Under `O=C(O)[C@@H]1CCCN1C(=O)C1CCCC1S` (stereo partly drawn) stands 97 °C; under `O=C(Nc1ccccn1)c1cnc2c(c1O)CCCC2`, above 300 °C. Under `Cc1cc(C)c(-c2cn(C)c3nc(N4CCCCC4)n(C)c(=O)c23)c(C)c1` stands 210 to 212 °C; under `COC1=C(OC)C(=O)c2ccccc2C1=O`, 116 to 117 °C; under `CCCNC1=CC(=O)c2c(OC)ccc(OC)c2C1=O`, 175 to 176 °C.

Regarding `COCC1OC(n2cnc3c(Cl)nc(Cl)nc32)C(OC(C)=O)C1OC(C)=O` (stereo not drawn), the melting point was 59 to 61 °C. Under `CCCCCCCNC(=O)Nc1ccc(OC)cc1C(=O)NCC1CCN(C(c2ccccc2)c2ccccc2)CC1` stands 189 to 191 °C.

For `CC(C)(C)Nc1nc(NCc2ccccc2)c(C#N)cc1F`, the melting point was 138 to 140 °C. Under `CCOC(=O)NNc1ccc(N(CC)CC(C)O)nn1` (stereo not drawn) stands 160 to 162 °C; under `NC(=O)NCCS(=O)CC(O)CO` (stereo not drawn), 102 °C. Under `COc1ccc(N2CCN(c3c(C)c(C)c4c(c3C)C(c3ccc5ccccc5c3)C(C)(C)O4)CC2)cc1` (stereo not drawn) stands 170 to 171 °C. On to `O=C(O)Cc1c[nH]c(-c2cc3nc(C(=O)O)c(=O)[nH]c3cc2[N+](=O)[O-])n1`, for which the melting point is above 300 °C.

For the compound `CC(=O)c1cc(O)c(-c2ccccc2)cc1O`, the melting point was determined as 169 °C.

`O=c1cc(-c2ccc([N+](=O)[O-])cc2)c2c(O)cc(O)cc2o1` had a melting point of 268 to 270 °C. Under `Brc1cn2ccccc2n1` stands 83 to 85 °C. Under `O=S(=O)(c1ccc(O)cc1)c1ccc(O)c2ccccc12` stands 198 to 199 °C.

In the case of `CCOC(=O)c1cc2c(F)cccc2[nH]c1=O`, the melting point is 180 °C.

The compound `O=[N+]([O-])c1cn2c(n1)O[C@@H](COc1ccc(N3CCC(Cc4ccc(OC(F)(F)F)cc4)CC3)cc1)C2` returned a melting point of 160 to 164 °C. Under `CCCc1nn(-c2ccc(C(F)(F)F)cn2)cc1CCCOc1ccccc1CC(=O)O` stands 100 to 101 °C. Under `COc1ccc(C2(O)C=CNC(=O)N2)cc1OC1CC2CCC1C2` (stereo not drawn) stands 167 to 169 °C; under `OCC1OC(n2cnc3c(N4CCOCC4)ncnc32)CC1F` (stereo not drawn), 175 to 178 °C. Under `Nc1nc2ccccc2c2c1nc(CCCOc1ccccc1)n2CCCCNC(=O)N1CCOCC1` stands 71.5 to 72.1 °C; under `COc1cc2cc(C(=O)O)sc(=O)c2cc1OC`, 306 to 307 °C; under `O=C(O)c1ccc2c(-c3ccccc3)coc2c1`, 160 to 170 °C. As to `COC(=O)CC(=O)NCc1cc(Br)cc2[nH]c(=O)c(=O)[nH]c12`, the melting point was above 300 °C. Under `O=C1NCc2c1cc1ccc3c(c1c2-c1cccnc1)OCO3` stands 257 to 260 °C; under `OCCc1c2ccccc2cc2ccccc12`, 85 to 87 °C. Under `N#Cc1ccc(Cn2cncn2)cc1-c1ccc(O)cc1` stands 211 to 213 °C; under `COc1ccc(C(=O)C2C(=O)N(C(N)=O)c3ccc(Cl)cc32)s1` (stereo not drawn), 180 to 182 °C.

Regarding `CC(C)(C)C(C)(C)Nc1nc(NC(C)(C)C(C)(C)C)nc(N2CC3CCC(CC3)C2)n1`, the melting point was 282 to 284 °C. Under `CC1=C(C)C(=O)C(CN2C(=O)[C@H]3CCC[C@H]3N(C(=O)CN3C(=O)c4ccccc4C3=O)c3ccccc32)=C(C)C1=O` (relative stereo) stands 258 to 260 °C. Under `Cc1nn(-c2ccccn2)cc1COc1ccc(COc2ncccc2C#N)cc1` stands 108 to 109 °C; under `OCC1(c2ccc(Cl)cc2)CCN(CCC(c2ccccc2)(c2ccccc2)c2ccccc2)CC1`, 156 to 158 °C. `CC#Cc1ccc(NC(=O)c2ccccc2NCc2ccncc2)cc1C(F)(F)F` gave a melting point of 165 to 166 °C. Under `N#CCCSc1nnsc1-c1ccccc1` stands 63.5 to 64.5 °C. Under `C=CCNC(=O)N1CC(Oc2ccccn2)C1` stands 72 to 76 °C. `CCCCc1ccc(-n2c(-c3ccc(SC)cc3)nc(SC)c(C#N)c2=O)cc1` returned a melting point of 138 to 141 °C. Under `CCOCc1nc2c(N)nc3ccccc3c2n1NCCCNS(C)(=O)=O` stands 148 to 150 °C; under `COc1nc(C(=O)NC(C)(C)C)c(C(=O)O)s1`, 120 to 122 °C; under `OCCCOc1ccc(-n2nc(-c3ccccc3)c3cccnc32)cc1`, 135 to 138 °C. Under `COc1ccccc1N1CCN(CCNCCCN2CC=C(c3c[nH]c4cc(Cl)ccc34)CC2)CC1` stands 71 to 73 °C. Under `Cc1ccnc([N+](=O)[O-])c1O` stands 87 to 88 °C; under `CCC(=O)NCCc1ccc(OCc2ccccc2)c(OCc2ccccc2)c1CC`, 159 to 160 °C. The compound `CCCc1c(OCCCCCCc2ccc(C(C)C)c(OC)c2OC)ccc(C(=O)O)c1O` displayed a melting point of 106 to 108 °C. Compound `COc1ccc(CNc2cc(-c3cc4cc(F)c(F)cc4[nH]3)ccc2OC)cc1` returned a melting point of 173 to 175 °C. Under `Cc1cccc(COCC2OC(n3cc(C(F)(F)F)c(=O)[nH]c3=O)CC2O)c1` (stereo not drawn) stands 169 to 171 °C. Under `CCCCc1ncc(CC(NC(=O)CCc2ccccc2)C(=O)O)n1Cc1ccccc1Cl` (stereo not drawn) stands 194 to 196 °C; under `CCOC(=O)C(=CNc1nonc1C)C(=O)c1cc(F)c(F)cc1F`, 104 to 107 °C. `OC1(c2cccn2Cc2ccccc2F)CCN(Cc2ccccc2)CC1` gave a melting point of 112 to 117 °C. Under `Cn1cc(Oc2ccccc2)c(=O)c(-c2cccc(C(F)(F)F)c2)c1` stands 144 to 145 °C. As to `N#Cc1ccc(C(=O)c2ccc(F)cc2)c(CO)c1`, the melting point amounted to 85 °C.

On to `CN(C)C1CCN(c2cc3ccc(Br)cc3c(=O)[nH]2)CC1`, for which the melting point was in the range of 227 to 228 °C. Under `COC(=O)c1ccccc1OS(=O)(=O)N(C)C` stands 75.5 to 76.5 °C; under `Brc1ccc(C=Cc2ccc(Br)cc2)cc1`, 213 °C; under `N[C@@H]1CCC(=O)N[C@@H]1c1cccc(OC(F)(F)F)c1` (relative stereo), 126 to 130 °C.

On to `O=C(C=P(c1ccccc1)(c1ccccc1)c1ccccc1)CCCOc1ccccc1`, for which the melting point lay within 83 to 89 °C. Under `CN1CCN(c2ccc([N+](=O)[O-])c(N)c2)CC1` stands 109 to 110 °C; under `NC(CC(=O)O)c1ccc2c(c1)OCO2` (stereo not drawn), 223 to 224 °C. Under `NC(=O)c1cccc(-c2ccc(Cl)c3cc(Cc4cc(F)cc(Cl)c4)sc23)c1` stands 169 to 170 °C; under `COc1ccccc1-c1ccc(C(=O)N2Cc3ccc(C(=O)NCc4cccn4C)n3Cc3ccccc32)cc1`, 148 to 150 °C; under `Cc1ccc(S(=O)(=O)NCCCCSc2ccc(NS(C)(=O)=O)cc2)cc1`, 95 to 96 °C. Under `CC(C)(CC(O)(C(=O)O)C(F)(F)F)c1ccc(C(N)=O)cc1` (stereo not drawn) stands 244 to 245 °C; under `CC(C)Nc1cccnc1N1CCN(C(=O)c2ccc(C(=O)NCCOCCO)cn2)CC1`, 93 to 95 °C; under `COCOc1cc(F)ccc1-c1cc(-c2cccc(NC(=O)CCN(C)C(=O)OC(C)(C)C)c2)c(C#N)c(NC(=O)c2ccco2)n1`, 172 to 174 °C. In turn, `OCC1OC(n2c(Cl)nc3cc(Br)c(Br)cc32)C(O)C1O` (stereo not drawn) showed a melting point of 126 to 129 °C. Under `COc1ccc2[nH]cc(/C=C/C(=O)c3ccncc3)c2c1` stands 236 to 239 °C; under `O=C1CCc2cc(OCc3ccccc3)c(O)c([N+](=O)[O-])c21`, 252 to 254 °C; under `COc1ncccc1-c1cccn2nc(Nc3ccc4ncccc4c3)nc12`, 247 to 249 °C.

As to `CCOC(=O)c1cc2ccccc2n1Cc1ccc(Cl)cc1`, the melting point is 107 to 108 °C. The compound `CCCCCCCCCCNC(=O)c1ccccc1N(CC(=O)OC)CC(=O)OC` came in with a melting point of 35 to 38 °C.

The melting point is the temperature of the solid-liquid transition.
